Experimental data taken from patent US12616203B2, “Use of 3-isoxazolidinones compounds as selective herbicides” (FMC Corporation, priority 2014, dated 2026).
“Also recorded” adds a separate entry of the source.

How the values were obtained:
[1] = test system: weeds; Wheat, barley, and oil seed rape (OSR); assay: Ex19 PRE greenhouse; format: in vivo; conditions: rate in the words
Description: In this study, the crops tested included Wheat, barley, and oil seed rape (OSR).
To determine weed efficacy and wheat, barley or OSR selectivity, 2,4 DC (CS 36.7%) and Diflufenican (CS 19.5%) were applied preemergence either alone or as tank-mix partners at the following rates. 2,4 DC was applied at 125, 170, 210 and 250 g ai/ha while Diflufenican was applied at 50, 75, and 100 g ai/ha. Pyroxasulfone (KIH-485, 85%) at 74.3 g ai/ha, pendimethalin (Prowl 3.3EC, 37.4%) at 1200 g ai/ha, or a premix of chlorsulfuron plus metsulfuron-methyl (Report Extra, 75%) at 15.8 g ai/ha were applied as commercial standards.
Herbicides included as standards for comparison were pyroxasulfone, pendimethalin, and a pre mix of chlorsulfuron plus metsulfuron methyl, all applied at labeled rates as indicated above. Treatments were replicated 3 times. […] Thereafter flats were watered and fertilized routinely.

weeds; Sugarcane (CTC20) = assay: Ex23 PRE greenhouse; conditions: 28 DAT, weed and rate in the words
Pennsylvania smartweed = assay: Ex15 PRE 2,4-DC + S-metolachlor, % control 28 DAT, Colby; format: in vivo, Polygonum pensylvanicum
Description: (§1) The weeds tested in this study were redroot pigweed (Amaranthus retroflexus, AMARE), Jimsonweed (Datura stramonium, DATST), black nightshade (Solanum nigrum, SOLNI), large crabgrass (Digitaria sanguinalis, DIGSA), Pennsylvania smartweed (Polygonum pensylvanicum, POLPY), horseweed (Conyza canadensis, ERICA), wild buckwheat (Polygonum convolvulus, POLCO). The crop tested was Corn (var. Viking).
(§2) To determine PRE efficacy and corn injury, five rates of each 2,4 DC (36.7% CS) and S-metolachlor (Dual II Magnum®, 82.4%) were applied either alone or as tank-mix. 2,4 DC was applied at 0, 125, 170, 210, or 250 g ai/ha and S-metolachlor was applied at 0, 267, 534, 801, or 1070 g ai/ha. Additional treatments included application of premix of pyroxasulfone plus fluthiacet-methyl (Anthem™ 23.3%) at 169.9 g ai/ha and tank-mix of mesotrione (Callisto®, 40%) at 123 g plus S-metolachlor at 1252 g. Treatments were applied just after the planting of large crabgrass, Jimsonweed, black nightshade, redroot pigweed, Pennsylvania smartweed, horseweed, wild buckwheat, and corn.
(§3) Flats were watered and fertilized routinely after treatment application. Each treatment was replicated three times. […] Corn injury was rated for bleaching and stunting.

Black nightshade = assay: as above; format: in vivo, Solanum nigrum
Description: as §1, §2, §3

Yellow nutsedge = assay: Ex39 PRE 2,4-DC + pyroxasulfone + carfentrazone, % control 28 DAT, Colby
[2] = test system: weeds; cotton, lentil, mung bean, bush bean, and cowpea; assay: Ex33 PRE greenhouse; format: in vivo; conditions: rate in the words
Description: ANTHEM® (fluthiacet-methyl, 0.69% plus pyroxasulfone, 22.61%) was included as a standard at labeled rate, Fluthiacet-methyl at 4.9 g ai/ha and pyroxasulfone at 165 g ai/ha. […] The following weeds were screened, Palmer amaranth, Pennsylvania smartweed, velvetleaf, green foxtail, morningglory, Italian ryegrass, prickly sida, and yellow nutsedge. Crops screened were cotton, lentil, mung bean, bush bean, and cowpea. […] Thereafter flats were watered and fertilized routinely.

common chickweed = assay: Ex14 POST 2,4-DC + bromoxynil, % control 28 DAT, Colby; format: in vivo, Stellaria media
Description: The study further assessed post crop safety on Wheat and Barley.
Nonionic surfactant at 0.5% (v/v) was included with commercial standards application. No adjuvant was applied with any other treatments. All plant species were direct seeded into 3″ plastic pots using metro-mix as growth media. At treatment application common lambsquarters was 1.75″, common chickweed was 2″, wild mustard was 2.25″, wild oat was 5.5″, wild buckwheat was 2-5″, Italian ryegrass was 2-3″, wheat was 5.5″, and barley was 4.5″ in height. Plants were watered well before application and not watered 24 h after application. Plants were watered and fertilized routinely after treatment application. Each treatment was replicated four times.

Wild buckwheat = assay: Ex11 PRE 2,4-DC + clomazone, % control 28 DAT, Colby; format: in vivo, Polygonum convolvulus
Description: The crop tested was Oilseed rape.
Additional treatments included applications of metazachlor (Butisan®, 43.1%) at 750 g ai/ha, napropamide (Devrinol DF®, 50%) at 1260 g, and dimethachlor (Teridox®, 48%) at 1000 g. […] Treatments were applied just after the planting of tall morningglory, wild mustard, common lambsquarters, Italian ryegrass, wild buckwheat, redroot pigweed, common chickweed, corn poppy, and oilseed rape.
Flats were watered and fertilized routinely after treatment application. Each treatment was replicated three times.

weeds; canola, and wheat = assay: Ex32 PRE greenhouse; format: in vivo; conditions: rate in the words
Description: Treatments were applied at the time of planting to Italian ryegrass, green foxtail, littleseed canarygrass, wild oat, quackgrass, dandelion, common chickweed, white clover, yellow nutsedge, redroot pigweed, field bindweed, canola, and wheat. […] Flats were watered and fertilized routinely after treatment application.

`CC1(C)CON(Cc2ccc(Cl)cc2Cl)C1=O` [2,4-DC, 2-(2,4-dichlorophenyl)methyl-4,4-dimethyl-3-isoxazolidinone] was tested, and the “weed control / crop safety in words” value [1] was “applied at 125 g ai/ha provided suppression (70-84% injury) to corn poppy, higher rates controlled (≥85% injury) corn poppy; also recorded: Wheat, barley, and oilseed rape (OSR) were safe (≤10% injury) with all stand alone treatments”, the “weed control in words” value (weeds; Sugarcane (CTC20)) was “applied alone at ≥500 g ai/ha controlled (≥85% injury) large crabgrass and redroot pigweed” and the X (Pennsylvania smartweed; 2,4-DC alone 125 g ai/ha) was 38%. For the same compound, the X (Pennsylvania smartweed; 2,4-DC alone 170 g ai/ha) was 67%, the X (Pennsylvania smartweed; 2,4-DC alone 210 g ai/ha) was 80% and the X (Pennsylvania smartweed; 2,4-DC alone 250 g ai/ha) was 78%. It also gave an X (Black nightshade; 2,4-DC alone 125 g ai/ha) of 32%, an X (Black nightshade; 2,4-DC alone 170 g ai/ha) of 33% and an X (Black nightshade; 2,4-DC alone 210 g ai/ha) of 47%. The X (Black nightshade; 2,4-DC alone 250 g ai/ha) was 50%, the “X (% control, 2,4-DC alone)” value (Yellow nutsedge; PRE, 2,4-DC 50 g ai/ha) was 1% and the “X (% control, 2,4-DC alone)” value (Yellow nutsedge; PRE, 2,4-DC 100 g ai/ha) was 3%. The “X (% control, 2,4-DC alone)” value (Yellow nutsedge; PRE, 2,4-DC 200 g ai/ha) was 3%, the “weed control / crop safety in words” value [2] was “controlled prickly sida, at 125 g controlled green foxtail” and the “weed control / crop safety in words” value ([2]; listed as 2, 4 DC) was “applied alone PRE was safe on cotton, mung bean, bush bean, and cowpea at all rates, lentil was not safe at any rate”. It also gave an X (common chickweed; 2,4-DC alone 125 g ai/ha) of 9%, an X (common chickweed; 2,4-DC alone 170 g ai/ha) of 7% and an X (common chickweed; 2,4-DC alone 210 g ai/ha) of 14%. The X (common chickweed; 2,4-DC alone 250 g ai/ha) was 28%, the X (Wild buckwheat; 2,4-DC alone 125 g ai/ha) was 10% and the X (Wild buckwheat; 2,4-DC alone 170 g ai/ha) was 30%. The X (Wild buckwheat; 2,4-DC alone 210 g ai/ha) was 22%, the X (Wild buckwheat; 2,4-DC alone 250 g ai/ha) was 27% and the “weed control / crop safety in words” value (weeds; canola, and wheat) was “alone controlled Italian ryegrass and wild oat at 400 g; common chickweed was controlled at all rates; green foxtail was controlled at ≥100 g; littleseed canarygrass and redroot pigweed were controlled at 200 g”.
